Assays:
Assay type in all cases: functional, cell-based
[1] = test system: P388; assay: Antiproliferative activity against mouse P388 cells
[2] = test system: HeLa; assay: Cytotoxicity against human HeLa cells incubated for 48 hrs by MTT assay
[3] = test system: HepG2; assay: Cytotoxicity against human HepG2 cells incubated for 48 hrs by MTT assay; details: HepG2, 48 h
[4] = test system: PANC-1; assay: Cytotoxicity against human Panc-1 cells incubated for 48 hrs by MTT assay; details: PANC-1, 48 h
[5] = test system: AGS; assay: Cytotoxicity against human AGS cells incubated for 48 hrs by MTT assay
[6] = test system: MDA-MB-231; assay: Cytotoxicity against human MDA-MB-231 cells incubated for 48 hrs by MTT assay; details: MDA-MB-231, 48 h
[7] = test system: WM 266-4; assay: Cytotoxicity against human WM 266-4 cells incubated for 72 hrs by ATPlite assay; details: WM 266-4, 72 h
[8] = test system: HCT-116; assay: Cytotoxicity against human HCT116 cells incubated for 72 hrs by ATPlite assay; details: HCT-116, 72 h

For CC(=O)O[C@@H]1C[C@H](O)[C@@]23COC(O)[C@]1(C)[C@@H]2C[C@@H](O)[C@@]1(C)[C@@H]2C(=O)C[C@@H](c4ccoc4)[C@]2(C)CC(=O)[C@@H]13 (stereo not given in full), which IC50 [1] is on record?
The IC50 was 58000 nM.

What does the source list for C[C@@H](O)[C@H]1OC(=O)C=C2[C@]3(C)[C@H]4[C@H](OC(=O)[C@@]4(C)[C@@H](O)[C@H]4O[C@H]43)[C@H]3O[C@@]231?
IC50 [2]: 1800 nM; IC50 [3]: 11000 nM; IC50 [4]: 16000 nM; IC50 [5]: 1300 nM; IC50 [6]: 3000 nM

Which IC50 [2] does the source give for C[C@@]12C3=CC(=O)O[C@H]([C@H](O)CO)[C@]34O[C@@H]4[C@H]3OC(=O)[C@](C)([C@H]31)[C@@H](O)[C@H]1O[C@H]12 here?
Its IC50 is > 40000 nM.

What about the IC50 [3] of the same compound?
Its IC50 is > 40000 nM.

What about the IC50 [4] of the same compound?
Its IC50 is > 40000 nM.

And the IC50 [5]?
The IC50 was > 40000 nM.

And the IC50 [6]?
Its IC50 is > 40000 nM.

Which results are given for CC(C)[C@H]1OC(=O)C=C2C1=C[C@H]1OC(=O)[C@@]3(C)C[C@@H](O)C[C@@]2(C)[C@@H]13?
IC50 [2]: 900 nM; IC50 [3]: 3700 nM; IC50 [4]: 3100 nM; IC50 [5]: 370 nM; IC50 [6]: 1100 nM

Which IC50 [7] does the source give for C/C(C=O)=C\[C@H]1C[C@@H]([C@@H]2CC[C@]34C[C@]23C=C[C@@H]2[C@@]3(C)CC=C5C[C@@H](c6ccccc6)OC[C@]5(C)[C@@H]3C[C@@H](O)[C@]24C)C(=O)O1 here?
The IC50 was 1500 nM.

What about the IC50 [8] of the same compound?
Its IC50 is 92 nM.

Which IC50 [7] does the source give for CC(O)(CO)[C@H]1C[C@H](O)[C@@H]([C@@H]2CC=C3[C@]4(C)[C@H](O)C[C@@H]5[C@](C)(CC=C6C[C@@H](Cc7ccccc7)OC[C@@]65C)[C@H]4CC[C@]32C)[C@@H](O)O1 (stereo not given in full) here?
The IC50 was 31000 nM.

What about the IC50 [8] of the same compound?
The IC50 was 4200 nM.

For CC(=O)O[C@@H]1C[C@H](O)[C@@]23COC(O)[C@]1(C)[C@@H]2C[C@@H](O)[C@]1(C)[C@@H]3C(=O)C[C@@]2(C)[C@H](c3ccoc3)C[C@H]3O[C@@]312 (stereo not given in full), which IC50 [1] is on record?
Its IC50 is < 1.9 nM.

How did the IC50 [1] turn out when CC(=O)OC1OC[C@@]23[C@H]4C(=O)C(OC(C)=O)[C@@]5(C)[C@H](c6ccoc6)C[C@H]6O[C@]65[C@]4(C)[C@H](O)C[C@H]2[C@]1(C)[C@H](OC(C)=O)C[C@@H]3O (stereo not given in full) was run?
Its IC50 is 16 nM.

For CC(=O)O[C@@]1(C)COC2(C1)OC(=O)[C@H]([C@@H]1CC[C@]34C[C@]13C=C[C@@H]1[C@@]3(C)CC=C5C[C@@H](Cc6ccccc6)OC[C@]5(C)[C@@H]3CC(=O)[C@]14C)[C@H]2O (stereo not given in full), which IC50 [7] is on record?
The IC50 was 230 nM.

What about the IC50 [8] of the same compound?
The IC50 was 58 nM.

How did the IC50 [1] turn out when C=C[C@H]1OC(=O)C=C2C1=C[C@H]1OC(=O)[C@@]3(C)CCC[C@@]2(C)[C@@H]13 was run?
Its IC50 is 160 nM.

Which results are given for C=C[C@H]1OC(=O)C=C2[C@]3(C)[C@H]4[C@H](OC(=O)[C@@]4(C)[C@@H](O)[C@H]4O[C@H]43)[C@H]3O[C@@]231?
IC50 [2]: 620 nM; IC50 [3]: 3500 nM; IC50 [4]: 8500 nM; IC50 [5]: 550 nM; IC50 [6]: 660 nM

C/C(=C\[C@@H]1OC(=O)[C@H]([C@@H]2CC[C@]34C[C@]23C=C[C@@H]2[C@@]3(C)CC=C5C[C@@H](c6ccccc6)OC[C@]5(C)[C@@H]3C[C@@H](O)[C@]24C)[C@H]1O)CO was tested. Which IC50 [7] did it give?
Its IC50 is 340 nM.

And the IC50 [8]?
Its IC50 is 81 nM.

With C=C1[C@@H](O)C[C@H]2C(C)(C)C[C@H](Cl)C[C@]2(C)[C@H]1C[C@H](O)[C@H]1CC(=O)NC1=O [CHLOROLISSOCLIMIDE] as the compound, how does the IC50 [1] read?
Its IC50 is 4 nM.

How did the IC50 [1] turn out when C=C1[C@@H](O)C[C@H]2C(C)(C)[C@@H](Cl)[C@H](Cl)C[C@]2(C)[C@H]1C[C@H](O)[C@H]1CC(=O)NC1=O [DICHLOROLISSOCLIMIDE] was run?
Its IC50 is 2 nM.

How did the IC50 [2] turn out when CC(C)c1oc(=O)cc2c1[C@@H](O)[C@H]1OC(=O)[C@@]3(C)[C@@H](O)[C@H]4O[C@H]4[C@@]2(C)[C@@H]13 [NAGILACTONE C] was run?
Its IC50 is 3300 nM.

And the IC50 [3]?
Its IC50 is 14000 nM.

And the IC50 [4]?
The IC50 was > 40000 nM.

What about the IC50 [5] of the same compound?
Its IC50 is 2300 nM.

What about the IC50 [6] of the same compound?
The IC50 was 5000 nM.

What does the source list for CC(C)[C@H]1OC(=O)C=C2C1=C[C@H]1OC(=O)[C@@]3(C)CCC[C@@]2(C)[C@@H]13 [NAGILACTONE F]?
IC50 [2]: 720 nM; IC50 [3]: 1300 nM; IC50 [4]: 19000 nM; IC50 [5]: 500 nM; IC50 [1]: 280 nM; IC50 [6]: 1000 nM

Source: ChEMBL document CHEMBL4706632, “Development of Potential Antitumor Agents from the Scaffolds of Plant-Derived Terpenoid Lactones” (J Med Chem, 2020)
